Source: BindingDB's records for doi:10.7270/Q2ZC817P (The Scripps Research Institute Molecular Screening Center, 2007)

target: Sphingosine 1-phosphate receptor 1 (Homo sapiens, UniProt P21453); assay: potentiators of S1P1 agonist response, dose response, cell-based, potentiator mode, 60K MLSMR set (AID 466); settings: not given
Sequence (P21453 whole entry): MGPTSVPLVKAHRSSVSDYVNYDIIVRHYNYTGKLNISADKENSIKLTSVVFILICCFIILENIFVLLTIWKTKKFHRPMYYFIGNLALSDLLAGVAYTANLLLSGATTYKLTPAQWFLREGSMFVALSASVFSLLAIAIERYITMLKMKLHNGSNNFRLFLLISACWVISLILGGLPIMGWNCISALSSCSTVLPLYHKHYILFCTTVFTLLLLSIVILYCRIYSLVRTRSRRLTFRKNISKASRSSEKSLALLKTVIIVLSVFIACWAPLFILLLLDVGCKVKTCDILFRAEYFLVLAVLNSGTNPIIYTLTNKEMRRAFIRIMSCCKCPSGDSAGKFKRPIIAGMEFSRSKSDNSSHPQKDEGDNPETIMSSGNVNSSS

`CC(C)c1cc(C(F)(F)F)n2nc(C(=O)Nc3ccc4c(c3)OCO4)cc2n1` [5-Isopropyl-7-trifluoromethyl-pyrazolo[1,5-a]pyrimidine-2-carboxylic acid benzo[1,3]dioxol-5-ylamide] and `O=C(Nc1ccc(N2CCCC2)c(Cl)c1)c1ccc(Br)o1` [5-bromanyl-N-(3-chloranyl-4-pyrrolidin-1-yl-phenyl)furan-2-carboxamide] are within 1.5-fold of each other in EC50: 2.84 µM for the first, 3.76 µM for the second.

Going from `Cc1cc(N2CCN(C/C=C/c3ccccc3)CC2)n2ncnc2n1` [5-Methyl-7-[4-((E)-3-phenyl-allyl)-piperazin-1-yl]-[1,2,4]triazolo[1,5-a]pyrimidine] to `CCc1cc2c(N3CCN(c4ccccc4)CC3)ncnc2s1` [6-ethyl-4-(4-phenyl-1-piperazinyl)thieno[2,3-d]pyrimidine], the EC50 falls from greater than 30 µM to 8.06 µM. The second is the more potent here.

`CCC(NCCOc1ccc(Cl)cc1)=C1C(=O)N(C)C(=O)N(C)C1=O` [5-[1-[2-(4-chlorophenoxy)ethylamino]propylidene]-1,3-dimethyl-1,3-diazinane-2,4,6-trione] and `Cn1nc(C(C)(C)C)cc1C(=O)NCc1ccc(N2CCCC2=O)cc1` [5-tert-Butyl-2-methyl-2H-pyrazole-3-carboxylic acid 4-(2-oxo-pyrrolidin-1-yl)-benzylamide] are within 1.5-fold of each other in EC50: 5.34 µM for the first, 4.46 µM for the second.

First: Cc1ccc(OCc2nc(-c3ccccc3)no2)c(C)c1 [5-[(2,4-dimethylphenoxy)methyl]-3-phenyl-1,2,4-oxadiazole]
Second: Clc1ccc(OCc2nc(-c3ccncc3)no2)c(Br)c1 [5-[(2-bromanyl-4-chloranyl-phenoxy)methyl]-3-pyridin-4-yl-1,2,4-oxadiazole]
The EC50 of the first is 1.8-fold lower: 1.96 µM for the first, 3.45 µM for the second. The first is the more potent here.

First: COC(=O)c1cc(NCc2ccccc2F)ccc1N1CCOCC1 [5-[(2-fluorobenzyl)amino]-2-morpholino-benzoic acid methyl ester]
Second: Nc1ccc(N2CCOCC2)c(Cl)c1 [(3-chloro-4-morpholino-phenyl)amine]
The EC50 of the first is 5.6-fold higher: 5.46 µM for the first, 0.981 µM for the second. The second is the more potent here.

Compared with `COC(=O)c1cc(CSc2nnc(-c3ccccc3)c(-c3ccccc3)n2)oc1C` [5-[[(5,6-diphenyl-1,2,4-triazin-3-yl)thio]methyl]-2-methyl-3-furancarboxylic acid methyl ester], `OC(c1cccc(OCc2ccccc2)c1)c1nnc(-c2ccccc2)o1` (stereo unspecified) [(3-benzoxyphenyl)-(5-phenyl-1,3,4-oxadiazol-2-yl)methanol] is 2.5-fold higher in EC50: 1.05 µM for the first, 2.65 µM for the second.

Going from `O=S(=O)(NCc1ccncc1)c1ccc(Br)s1` [5-bromanyl-N-(pyridin-4-ylmethyl)thiophene-2-sulfonamide] to `CCc1ccc(S(=O)(=O)NCCc2csc(-c3ccccc3)n2)s1` [5-ethyl-N-[2-(2-phenyl-1,3-thiazol-4-yl)ethyl]thiophene-2-sulfonamide], the EC50 rises from 2.21 µM to 8.24 µM (3.7-fold).

Compared with `COC(=O)c1c(C)n(-c2ccc(OC)cc2)c2ccc(O)cc12` [5-hydroxy-1-(4-methoxyphenyl)-2-methyl-3-indolecarboxylic acid methyl ester], `COc1ccc(-c2cn3c(C)c(C(=O)Nc4ccncc4)sc3n2)cc1` [6-(4-methoxyphenyl)-3-methyl-N-(4-pyridyl)imidazo[2,1-b]thiazole-2-carboxamide] is higher in EC50: 6.86 µM for the first, greater than 10 µM for the second.

First: O=S1(=O)Nc2c(ccc3cccnc23)-c2ccccc21 [5H-quinolino[8,7-c][1,2]benzothiazine 6,6-dioxide]
Second: Clc1ccccc1C1=Nn2c(nnc2-c2ccncc2)SC1 [6-(2-chlorophenyl)-3-(4-pyridyl)-7H-[1,2,4]triazolo[3,4-b][1,3,4]thiadiazine]
The EC50 of the first is 1.8-fold lower: 3.22 µM for the first, 5.66 µM for the second. The first is the more potent here.

`COc1ccc(N2CCn3c2nc2c3c(=O)n(CCCc3ccccc3)c(=O)n2C)c(OC)c1` [6-(2,4-dimethoxyphenyl)-4-methyl-2-(3-phenylpropyl)-7,8-dihydropurin[7,8-a]imidazole-1,3-quinone] and `CCCCn1ccnc1C(=O)c1cccc(S(=O)(=O)N2c3ccccc3CC2C)c1` (stereo unspecified) [(1-butyl-2-imidazolyl)-[3-[(2-methyl-2,3-dihydroindol-1-yl)sulfonyl]phenyl]methanone] are within 1.5-fold of each other in EC50: 8.71 µM for the first, 9.16 µM for the second.

First: CCOC(=O)C1C(=O)C=C(c2ccc(OC)cc2)CC1c1ccco1 (stereo unspecified) [6-(2-furanyl)-4-(4-methoxyphenyl)-2-oxo-1-cyclohex-3-enecarboxylic acid ethyl ester]
Second: CCOC(=O)c1cccc2c1-c1ccccc1C2N=O (stereo unspecified) [9-hydroximinofluorene-4-carboxylic acid ethyl ester]
The EC50 of the first is 3-fold lower: 3.37 µM for the first, 10.2 µM for the second.

Compared with `Cc1[nH]nc2c1C1(C(=O)N(Cc3ccc(Cl)cc3)c3ccccc31)C(C#N)C(=N)O2` (stereo unspecified) [6-amino-1'-[(4-chlorophenyl)methyl]-3-methyl-2'-oxo-5-spiro[2H-pyrano[2,3-c]pyrazole-4,3'-indole]carbonitrile], `OCC12C=CC(O1)c1c2c(O)n(-c2ccccc2-c2ccccc2)c1O` (stereo unspecified) [7-(hydroxymethyl)-2-(2-phenylphenyl)-4,7a-dihydro-3aH-octahydro-1H-4,7-epoxyisoindole-1,3-dione] is 6.4-fold lower in EC50: 43.6 µM for the first, 6.82 µM for the second. The second is the more potent here.

`c1csc(CCNc2ncnc3sc4c(c23)CCC4)c1` [7,8-dihydro-6H-cyclopenta[4,5]thieno[1,2-c]pyrimidin-1-yl-[2-(2-thienyl)ethyl]amine] and `Cn1c(C(=O)N2CCCc3ccccc32)cc2sccc21` [(3,4-Dihydro-2H-quinolin-1-yl)-(4-methyl-4H-thieno[3,2-b]pyrrol-5-yl)-methanone] are within 1.5-fold of each other in EC50: 1.44 µM for the first, 1.47 µM for the second.

Compared with `Cc1nnc(SC(=O)N2c3ccccc3Sc3ccccc32)s1` [10-phenothiazinecarbothioic acid S-(5-methyl-1,3,4-thiadiazol-2-yl) ester], `Cc1nc(NC(C)c2ccccc2)c2oc3ccccc3c2n1` (stereo unspecified) [(2-methylbenzofuro[3,2-d]pyrimidin-4-yl)-(1-phenylethyl)amine] is 2.7-fold higher in EC50: 3.63 µM for the first, 9.78 µM for the second.

`C=CCN1/C(=N/c2cccnc2)SCC1(O)c1ccc(C)cc1` (stereo unspecified) [(2E)-3-allyl-4-(4-methylphenyl)-2-(pyridin-3-ylimino)-1,3-thiazolidin-4-ol] and `Cc1cc(C(=O)N2CCN(C(c3ccccc3)c3ccccc3)CC2)on1` [(4-benzhydrylpiperazin-1-yl)-(3-methyl-1,2-oxazol-5-yl)methanone] are within 1.5-fold of each other in EC50: 7.92 µM for the first, 5.65 µM for the second.

Going from `O=C(Oc1cccc(C(=O)N2CCOCC2)c1)c1ccc(Br)cc1` [(3-morpholin-4-ylcarbonylphenyl) 4-bromanylbenzoate] to `O=C(CSc1nnc(-c2cc3ccccc3cc2O)n1Cc1ccco1)c1ccc(F)cc1` [(3Z)-3-[3-[2-(4-fluorophenyl)-2-oxidanylidene-ethyl]sulfanyl-4-(furan-2-ylmethyl)-1H-1,2,4-triazol-5-ylidene]naphthalen-2-one], the EC50 falls from greater than 95 µM to 23.1 µM. The second is the more potent here.

same assay, conditions: inactive by the depositor's call

In order of falling EC50:
1. CCOC(=O)c1oc2ccc(S(=O)(=O)n3nc(-c4ccc(OC)cc4)cc3N)cc2c1C [5-[5-amino-3-(4-methoxyphenyl)pyrazol-1-yl]sulfonyl-3-methyl-coumarilic acid ethyl ester]  44.3 µM
2. COC(=O)c1ccc(CSc2nc3ccccc3c(=O)n2Cc2ccco2)o1 [5-[[[3-(2-furanylmethyl)-4-oxo-2-quinazolinyl]thio]methyl]-2-furancarboxylic acid methyl ester]  40.4 µM
3. CCCc1cc2c(=O)c(-c3ccccn3)coc2cc1OC [7-methoxy-6-propyl-3-(2-pyridinyl)-1-benzopyran-4-one]  37.1 µM
4. COc1ccccc1-n1nnnc1SCc1cc2c(cc1Br)OCO2 [5-[(6-bromanyl-1,3-benzodioxol-5-yl)methylsulfanyl]-1-(2-methoxyphenyl)-1,2,3,4-tetrazole]  36.2 µM
5. Cc1ccc(N2C(=O)c3cccc4c(N5CCN(C)CC5)ccc(c34)C2=O)c2cccnc12 [6-(4-methyl-1-piperazinyl)-2-(8-methyl-5-quinolinyl)-1H-benzo[de]isoquinoline-1,3(2H)-dione]  33.2 µM
6. COc1cccc(-c2nnc3sc(C4CCCCC4)nn23)c1 [6-cyclohexyl-3-(3-methoxyphenyl)-[1,2,4]triazolo[3,4-b][1,3,4]thiadiazole]  30.6 µM
7. Cc1ccc(S(=O)(=O)Nc2cccc3ncccc23)s1 [5-methyl-N-quinolin-5-ylthiophene-2-sulfonamide]  27.6 µM
8. CCOc1ccccc1COC(=O)c1cccc(-n2cnnn2)c1 [(2-ethoxyphenyl)methyl 3-(1,2,3,4-tetrazol-1-yl)benzoate]  25.8 µM
9. COc1ccc2ncn(-c3ccccc3)c2c1 [6-methoxy-1-phenyl-1H-1,3-benzodiazole]  23.6 µM
10. Oc1c(C(c2ccco2)N2CCN(C(c3ccccc3)c3ccccc3)CC2)sc2ncnn12 (stereo unspecified) [5-[(4-benzhydrylpiperazin-1-yl)-(furan-2-yl)methyl]-[1,3]thiazolo[3,2-b][1,2,4]triazol-6-ol]  20.1 µM
11. O=C(Nc1ccc(Oc2ccccc2)cc1)c1cnc2n(c1=O)CCS2 [5-keto-N-(4-phenoxyphenyl)-2,3-dihydrothiazolo[3,2-a]pyrimidine-6-carboxamide]  19.9 µM
12. CCCn1c(CN2CCN(c3cccc(Cl)c3)CC2)nc2c1c(=O)n(C)c(=O)n2C [8-[[4-(3-chlorophenyl)-1-piperazinyl]methyl]-1,3-dimethyl-7-propylpurine-2,6-dione]  18.8 µM
13. O=c1oc2cc(Br)ccc2n1CSC1=NCCS1 [6-Bromo-3-(4,5-dihydro-thiazol-2-ylsulfanylmethyl)-3H-benzooxazol-2-one]  17.6 µM
14. COc1ccc(CNc2cc(C)nc3ncnn23)c(OC)c1 [(2,4-Dimethoxy-benzyl)-(5-methyl-[1,2,4]triazolo[1,5-a]pyrimidin-7-yl)-amine]  16 µM
15. CCNc1nc2c(c(=O)n(C)c(=O)n2C)n1Cc1ccc(Cl)cc1 [7-(4-chlorobenzyl)-8-(ethylamino)-1,3-dimethyl-xanthine]  14.4 µM
16. CC1CC(C)(C)Nc2ccc(OC(=O)c3ccco3)cc21 (stereo unspecified) [(2,2,4-trimethyl-3,4-dihydro-1H-quinolin-6-yl) furan-2-carboxylate]  14 µM
17. Cc1cc(N2CCN(C(c3ccccc3)c3ccccc3)CC2)n2ncnc2n1 [7-(4-benzhydrylpiperazin-1-yl)-5-methyl-[1,2,4]triazolo[1,5-a]pyrimidine]  13.6 µM
18. Cc1ccc(C(=O)Nc2nc(COc3ccccc3)cs2)s1 [5-methyl-N-[4-(phenoxymethyl)-1,3-thiazol-2-yl]thiophene-2-carboxamide]  11.2 µM
19. CC1=CC(C)(C)Nc2ccc(OC(=O)c3cccnc3)cc21 [(2,2,4-trimethyl-1H-quinolin-6-yl) pyridine-3-carboxylate]  11 µM
